Legend:
Format in all cases: in vivo
[1] = test system: rice (Oryra sativa); assay: Test B flooded paddy test; conditions: Oryza sativa, 250 g ai/ha, Flood; 0 to 100 scale where 0 is no effect and 100 is complete control; read-out: Rice plant response rating
Outline: (§1)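 Visual ratings (0 none to 100 complete control) are relative to untreated plants, taken 13–15 d after treatment in a greenhouse. Test material went straight into floodwater standing 3 cm above the soil, kept constant, on plants at the 2-leaf stage.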

[2] = test system: sedge, umbrella (small-flower umbrella sedge, Cyperus difformis); assay: Test B flooded paddy test; conditions: Cyperus difformis, 250 g ai/ha, Flood; 0 to 100 scale where 0 is no effect and 100 is complete control; read-out: Sedge, Umbrella plant response rating
Outline: as §1

[3] = test system: ducksalad (Heteranthera limosa); assay: Test B flooded paddy test; conditions: Heteranthera limosa, 250 g ai/ha, Flood; 0 to 100 scale where 0 is no effect and 100 is complete control; read-out: Ducksalad plant response rating
Outline: as §1

[4] = test system: barnyardgrass (Echinochloa crus-galli); assay: Test B flooded paddy test; conditions: Echinochloa crus-galli, 250 g ai/ha, Flood; 0 to 100 scale where 0 is no effect and 100 is complete control; read-out: Barnyardgrass plant response rating
Outline: as §1

[5] = test system: giant foxtail (Setaria faberii); assay: Test A preemergence; conditions: Setaria faberi, pre-emergence, 240 h, Preemergence
Outline: (§2)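 Treatment is preemergence as a directed soil spray after planting, or postemergence at the one- to two-leaf stage, with test chemical in a non-phytotoxic solvent mixture plus surfactant. Plants stay in the greenhouse about 10 d before visual injury scoring on a 0 to 100 scale versus untreated controls.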

[6] = test system: ragweed (common ragweed, Ambrosia elatior); assay: Test A preemergence; conditions: Ambrosia artemisiifolia, pre-emergence, 240 h, Preemergence
Outline: as §2

[7] = test system: ryegrass, Italian (Italian ryegrass, Lolium multiflorum); assay: Test A preemergence; conditions: Lolium multiflorum, pre-emergence, 240 h, Preemergence
Outline: as §2

[8] = test system: Kochia (Kochia scoparia); assay: Test A preemergence; conditions: Bassia scoparia, pre-emergence, 240 h, Preemergence
Outline: as §2

[9] = test system: barnyardgrass (Echinochloa crus-galli); assay: Test A preemergence; conditions: Echinochloa crus-galli, pre-emergence, 240 h, Preemergence
Outline: as §2

[10] = test system: pigweed (Amaranthus retroflexus); assay: Test A preemergence; conditions: Amaranthus retroflexus, pre-emergence, 240 h, Preemergence
[11] = test system: giant foxtail (Setaria faberii); assay: Test A postemergence; conditions: Setaria faberi, post-emergence, 240 h, Postemergence, read-out: Plant response rating, Foxtail, Giant
Outline: as §2

[12] = test system: wheat (Triticum aestivum); assay: Test A postemergence; conditions: Triticum aestivum, post-emergence, 240 h, Postemergence, read-out: Plant response rating, Wheat
Outline: as §2

[13] = test system: Galium (catchweed bedstraw, Galium aparine); assay: Test A postemergence; conditions: Galium, post-emergence, 240 h, Postemergence, read-out: Plant response rating, Galium
Outline: as §2

[14] = test system: corn (Zea mays); assay: Test A postemergence; conditions: Zea mays, post-emergence, 240 h, Postemergence
Outline: as §2

[15] = test system: ragweed (common ragweed, Ambrosia elatior); assay: Test A postemergence; conditions: Ambrosia artemisiifolia, post-emergence, 240 h, Postemergence, read-out: Plant response rating, Ragweed
Outline: as §2

[16] = test system: ryegrass, Italian (Italian ryegrass, Lolium multiflorum); assay: Test A postemergence; conditions: Lolium multiflorum, post-emergence, 240 h, Postemergence, read-out: Plant response rating, Ryegrass, Italian
Outline: as §2

[17] = test system: blackgrass (Alopecurus myosuroides); assay: Test A postemergence; conditions: Alopecurus myosuroides, post-emergence, 240 h, Postemergence, read-out: Plant response rating, Blackgrass
Outline: as §2

[18] = test system: Kochia (Kochia scoparia); assay: Test A postemergence; conditions: Bassia scoparia, post-emergence, 240 h, Postemergence, read-out: Plant response rating, Kochia
Outline: as §2

[19] = test system: barnyardgrass (Echinochloa crus-galli); assay: Test A postemergence; conditions: Echinochloa crus-galli, post-emergence, 240 h, Postemergence, read-out: Plant response rating, Barnyardgrass
Outline: as §2

[20] = test system: pigweed (Amaranthus retroflexus); assay: Test A postemergence; conditions: Amaranthus retroflexus, post-emergence, 240 h, Postemergence, read-out: Plant response rating, Pigweed
Outline: as §2

[21] = 125 g ai/ha, visual injury after approximately 10 d, 0 to 100 scale where 0 is no effect and 100 is complete control
[22] = 31 g ai/ha, visual injury after approx. 10 d, 0 to 100 scale, 0 no effect, 100 complete control

CC(C)=CC1CNC(=O)C1C(=O)Nc1cccc(F)c1F (stereo not drawn) [Compound 1012]
pest or weed control at 250 g/ha [1]: 20%
pest or weed control at 250 g/ha [2]: 0%
pest or weed control at 250 g/ha [3]: 0%
pest or weed control at 250 g/ha [4]: 0%
pest or weed control at 125 g/ha ([5]; 125 g ai/ha, visual injury rating after approximately 10 d, read-out: Foxtail, Giant plant response rating (0 to 100 scale, 0 is no effect, 100 is complete control)): 0%
pest or weed control at 31 g/ha ([5]; 31 g ai/ha, 0 to 100 scale (0 no effect, 100 complete control), read-out: Plant response rating, Foxtail, Giant): 0%
pest or weed control at 31 g/ha ([6]; 31 g ai/ha, 0 to 100 scale where 0 is no effect and 100 is complete control, read-out: Ragweed plant response rating): 0%
pest or weed control at 125 g/ha ([6]; 125 g ai/ha, visual injury rating after approximately 10 d, read-out: Ragweed plant response rating (0 to 100 scale, 0 is no effect, 100 is complete control)): 0%
pest or weed control at 31 g/ha ([7]; 31 g ai/ha, 0 to 100 scale where 0 is no effect and 100 is complete control, read-out: Ryegrass, Italian plant response rating): 0%
pest or weed control at 125 g/ha ([7]; 125 g ai/ha, visual injury rating after approximately 10 d, read-out: Ryegrass, Italian plant response rating (0 to 100 scale, 0 is no effect, 100 is complete control)): 0%
pest or weed control at 31 g/ha ([8]; 31 g ai/ha, 0 to 100 scale where 0 is no effect and 100 is complete control, read-out: Kochia plant response rating): 0%
pest or weed control at 125 g/ha ([8]; 125 g ai/ha, visual injury rating after approximately 10 d, read-out: Kochia plant response rating (0 to 100 scale, 0 is no effect, 100 is complete control)): 0%
pest or weed control at 125 g/ha ([9]; 125 g ai/ha, visual injury rating after approximately 10 d, read-out: Barnyardgrass plant response rating (0 to 100 scale, 0 is no effect, 100 is complete control)): 0%
pest or weed control at 31 g/ha ([9]; 31 g ai/ha, 0 to 100 scale (0 no effect, 100 complete control), read-out: Plant response rating, Barnyardgrass): 0%
pest or weed control at 31 g/ha ([10]; 31 g ai/ha, 0 to 100 scale where 0 is no effect and 100 is complete control, read-out: Pigweed plant response rating): 0%
pest or weed control at 125 g/ha ([10]; 125 g ai/ha, visual injury rating after approximately 10 d, read-out: Pigweed plant response rating (0 to 100 scale, 0 is no effect, 100 is complete control)): 0%
pest or weed control at 125 g/ha [11, 21]: 0%
pest or weed control at 31 g/ha [11, 22]: 0%
plant injury at 125 g/ha [12, 21]: 0%
plant injury at 31 g/ha [12, 22]: 0%
pest or weed control at 125 g/ha [13, 21]: 0%
pest or weed control at 31 g/ha [13, 22]: 0%
Corn plant response rating (crop injury, 0 = no effect, 100 = complete kill) at 125 g/ha [14, 21]: 0%
Corn plant response rating (crop injury, 0 = no effect, 100 = complete kill) at 31 g/ha [14, 22]: 0%
pest or weed control at 125 g/ha [15, 21]: 0%
pest or weed control at 31 g/ha [15, 22]: 0%
pest or weed control at 125 g/ha [16, 21]: 0%
pest or weed control at 31 g/ha [16, 22]: 0%
pest or weed control at 125 g/ha [17, 21]: 0%
pest or weed control at 31 g/ha [17, 22]: 0%
pest or weed control at 125 g/ha [18, 21]: 0%
pest or weed control at 31 g/ha [18, 22]: 0%
pest or weed control at 125 g/ha [19, 21]: 0%
pest or weed control at 31 g/ha [19, 22]: 0%
pest or weed control at 125 g/ha [20, 21]: 0%
pest or weed control at 31 g/ha [20, 22]: 0%
